The NIST ThermoML archive (doi:10.1021/je5007696)

Assay: xn = mol fraction of the nth substance listed
Details: 100 kPa, Liquid; for viscosity: Concentric cylinders viscometry; for mass density: Vibrating tube method

CCC(C)=O [butanone] + CCCCO
Details	mass density [kg/m3]	viscosity [mPa·s]
288.15 K, x1 = 0.0997	813.126	2.293
288.15 K, x1 = 0.1999	812.877	1.645
288.15 K, x1 = 0.3003	812.583	1.257
288.15 K, x1 = 0.4008	812.253	1.009
288.15 K, x1 = 0.5003	811.906	0.8332
288.15 K, x1 = 0.6001	811.555	0.7013
288.15 K, x1 = 0.6992	811.203	0.5975
288.15 K, x1 = 0.7991	810.843	0.5248
288.15 K, x1 = 0.899	810.477	0.4708
288.15 K, x1 = 1	810.133	0.4306
293.15 K, x1 = 0.0997	809.157	2.034
293.15 K, x1 = 0.1999	808.747	1.483
293.15 K, x1 = 0.3003	808.3	1.147
293.15 K, x1 = 0.4008	807.824	0.9297
293.15 K, x1 = 0.5003	807.337	0.7756
293.15 K, x1 = 0.6001	806.848	0.6603
293.15 K, x1 = 0.6992	806.362	0.5696
293.15 K, x1 = 0.7991	805.875	0.4997
293.15 K, x1 = 0.899	805.39	0.4505
293.15 K, x1 = 1	804.926	0.4136
298.15 K, x1 = 0.0997	805.165	1.814
298.15 K, x1 = 0.1999	804.592	1.343
298.15 K, x1 = 0.3003	803.992	1.051
298.15 K, x1 = 0.4008	803.369	0.8588
298.15 K, x1 = 0.5003	802.741	0.7227
298.15 K, x1 = 0.6001	802.114	0.6178
298.15 K, x1 = 0.6992	801.494	0.5358
298.15 K, x1 = 0.7991	800.878	0.475
298.15 K, x1 = 0.899	800.271	0.4313
298.15 K, x1 = 1	799.695	0.3962
303.15 K, x1 = 0.0997	801.147	1.626
303.15 K, x1 = 0.1999	800.407	1.221
303.15 K, x1 = 0.3003	799.653	0.9652
303.15 K, x1 = 0.4008	798.884	0.7945
303.15 K, x1 = 0.5003	798.115	0.6753
303.15 K, x1 = 0.6001	797.349	0.5823
303.15 K, x1 = 0.6992	796.597	0.5093
303.15 K, x1 = 0.7991	795.852	0.4521
303.15 K, x1 = 0.899	795.126	0.4114
303.15 K, x1 = 1	794.435	0.3793
308.15 K, x1 = 0.0997	797.097	1.465
308.15 K, x1 = 0.1999	796.195	1.115
308.15 K, x1 = 0.3003	795.288	0.8886
308.15 K, x1 = 0.4008	794.369	0.7364
308.15 K, x1 = 0.5003	793.457	0.6314
308.15 K, x1 = 0.6001	792.551	0.5453
308.15 K, x1 = 0.6992	791.666	0.48
308.15 K, x1 = 0.7991	790.793	0.4294
308.15 K, x1 = 0.899	789.946	0.3918
308.15 K, x1 = 1	789.142	0.3626
313.15 K, x1 = 0.0997	793.009	1.327
313.15 K, x1 = 0.1999	791.945	1.022
313.15 K, x1 = 0.3003	790.885	0.8197
313.15 K, x1 = 0.4008	789.819	0.6843
313.15 K, x1 = 0.5003	788.763	0.5907
313.15 K, x1 = 0.6001	787.719	0.5143
313.15 K, x1 = 0.6992	786.701	0.4552
313.15 K, x1 = 0.7991	785.7	0.4073
313.15 K, x1 = 0.899	784.731	0.3723
313.15 K, x1 = 1	783.814	0.3461
318.15 K, x1 = 0.0997	788.88	1.206
318.15 K, x1 = 0.1999	787.652	0.939
318.15 K, x1 = 0.3003	786.442	0.7575
318.15 K, x1 = 0.4008	785.228	0.637
318.15 K, x1 = 0.5003	784.03	0.5532
318.15 K, x1 = 0.6001	782.849	0.485
318.15 K, x1 = 0.6992	781.696	0.43
318.15 K, x1 = 0.7991	780.568	0.386
318.15 K, x1 = 0.899	779.478	0.3532
318.15 K, x1 = 1	778.451	0.3303
323.15 K, x1 = 0.0997	784.708	1.096
323.15 K, x1 = 0.1999	783.318	0.8726
323.15 K, x1 = 0.3003	781.954	0.7156
323.15 K, x1 = 0.4008	780.593	0.6041
323.15 K, x1 = 0.5003	779.253	0.5225
323.15 K, x1 = 0.6001	777.934	0.4597
323.15 K, x1 = 0.6992	776.652	0.4101
323.15 K, x1 = 0.7991	775.398	0.369
323.15 K, x1 = 0.899	774.188	0.3356
323.15 K, x1 = 1	773.047	0.3168
